# US20140248347A1 (PFIZER INC., priority 2011, published 2014)
# Assay: Susceptibility of axitinib API to degradation found during drug development
# Type: physicochemical
# Conditions: active pharmaceutical ingredient
structure (smiles),measurement,value
"CNC(=O)c1ccccc1Sc1ccc2c(/C=C/c3ccccn3)n[nH]c2c1 [axitinib, N-methyl-2-[3-((E)-2-pyridin-2-yl-vinyl)-1H-indazol-6-ylsulfanyl]-benzamide]","susceptibility to degradation, including photodegradation","highly susceptible to degradation, including photodegradation"
